Results: patent US20080267909A1, “PHAGOCYTE ENHANCEMENT THERAPY FOR ATHEROSCLEROSIS” (THE TRUSTEES OF COLUMBIA UNIVERSITY IN THE CITY OF NEW YORK, priority 2005, published 2008)

Assays:
[1] = test system: ingesting phagocytes (IPs) and non-IPs; experiment: FC-induced apoptosis (annexin V) in IPs and non-IPs during 20 hour post-ingestion FC-loading; format: cell-based, mouse; conditions: 10 μM inhibitor; for apoptosis in IPs: 20 hours in FC-loading medium, FIG. 10A
Experimental: FIG. 10A is a bar graph depicting the results of experiments in which the protocol described in FIG. 9C was used and the percent apoptosis was determined in non-IPs (cross-hatched bars) and IPs (black bars) that were incubated for 20 hours in FC-loading medium either in the absence or presence of 10 μM of the IKK inhibitor PS1145, 10 μM of the PI-3 kinase/Akt inhibitor […], or both compounds.
(§1) FC-AMs were removed from the culture dish and cultured for 30 minutes with a monolayer of fresh macrophages (“phagocytes”) at an approximate ratio of 1:5 (FC-AMs:phagocytes). In certain experiments, the FC-AMs were labeled with Alexa Fluor 488 annexin V or Calcium Green™-AM for 20 minutes prior to addition to the phagocytes in order to mark those phagocytes that had ingested the FC-AMs (“ingesting phagocytes,” or “IPs”). The non-ingested apoptotic cells were then removed by thorough rinsing as described in Li et al. (2006, J. Biol. Chem. 281:6707-6717), and the phagocytes were incubated in fresh medium for the indicated times. In some experiments, the phagocytes were incubated during the post-ingestion incubation in medium containing acetyl-LDL and 58035 to maintain FC levels in the (ingesting phagocytes) IPs, inhibitors of Akt or NFκB, or various combinations of these reagents. To assay apoptosis in the phagocytes, the cells were stained with Alexa Fluor 594 annexin V and viewed by fluorescence microscopy. For quantification, 4-6 representative fields of cells at 40× magnification were counted to determine the number of apoptotic phagocytes and total phagocytes for each condition.
Because NFκB is known to signal survival responses in cells, the functional significance of NFκB signaling in the survival response of IPs against FC-induced apoptosis was investigated. […] The NFkB and Akt survival pathways might represent independent, complementary survival pathways or they may signal through a common final mediator. […]

[2] = test system: ingesting phagocytes (IPs) and non-IPs; experiment: UV-induced apoptosis (annexin V) in IPs and non-IPs; format: cell-based, mouse; conditions: 10 μM inhibitor, 8 hour incubation after UV irradiation, FIG. 12
[3] = test system: FC-induced apoptotic macrophages; conditions: phagocytes pre-treated with 100 μM for 15 minutes; compared to untreated phagocytes; FIG. 2
Experimental: Briefly, mouse peritoneal macrophages were labeled with the fluorophore calcein-AM (green) and then FC-loaded to induced apoptosis. Some of the macrophages were not FC-loaded, thus serving as a non-apoptotic control. The macrophages were added to a monolayer of octadecylrhodamine-labeled (red) macrophage phagocytes for 30 minutes at 37° C. The monolayers were then thoroughly rinsed with phosphate buffered saline (PBS). […] The percentage of rhodamine-labeled phagocytes with green inclusion was determined and quantified. Inclusion of green indicated the uptake of apoptotic cells into the phagocytes.

[4] = test system: ingesting phagocytes (IPs); experiment: Apoptosis in phagocytes that had ingested FC-AMs, incubated with SRA ligand; format: cell-based, mouse
Experimental: as §1
FC-induced apoptosis in macrophages requires UPR activation in combination with engagement of the type A scavenger receptor (SRA), both of which occur with acetyl-LDL-induced FC loading. […]

[5] = test system: cholesterol trafficking to ACAT in the ER; experiment: Whole-cell cholesterol esterification assay in phagocytes after ingestion of FC-AMs; format: cell-based, mouse; conditions: 1 μM during the post-ingestion period; FIG. 7
Experimental: FIG. 7 is a bar graph depicting the results of experiments in which macrophages were incubated for 18 hours in medium alone (i.e., no exposure to FC-AMs) or in the same medium for the indicated time points after ingestion of FC-AMs. All of the incubations contained [^14C]oleate, and some of the phagocytes were incubated with 1 μM U18666A during the post-ingestion period to block cholesterol trafficking to the endoplasmic reticulum (ER). To make sure that the phagocytes would not be exposed to residual ACAT inhibitor in the FC-AMs, the FC-AMs for this experiment were generated by incubating macrophages from Acat1−/− mice with AcLDL without ACAT inhibitor. After the indicated time points, the macrophages were assayed for cholesteryl [^14C]oleate formation as an indicator of cholesterol trafficking to ACAT in the ER.
After a 30 minute incubation of phagocytes with FC-AMs that were made using acetyl-LDL and macrophages from Acat1^−/− mice (i.e., no ACAT inhibitor), non-ingested apoptotic cells were removed, and the phagocytes were incubated in fresh medium containing [^14C]oleate for specific times. […] Cholesterol esterification activity was then determined in lipid extracts of the cells by measuring the cellular content of cholesteryl [^14C]oleate by thin-layer chromatography (Tabas et al., 1987, J. Clin. Invest. 79:418-426). […]

[6] = test system: UV-induced apoptotic J774 macrophages; experiment: Phagocytosis of UV-induced apoptotic J774 macrophages by J744 murine macrophages (Example 4); format: cell-based; conditions: 10 μM, one hour pre-treatment, 45 minutes; vs untreated; FIG. 5
Experimental: In a similar experiment, J744 murine macrophages (phagocytes) were pretreated in the presence of absence of the ROCK inhibitor fasudil (10 μM) for one hour. The phagocytes were then incubated for 45 minutes, with or without fasudil, with fluorescently labeled UV-induced apoptotic J774 macrophages (“UV-Ams”). The percentage of phagocytes that had engulfed at least one UV-AM was quantified using fluorescent microscopy. […] Such compounds are useful for treating cardiovascular disease.

apoptotic J774 cells = experiment: Phagocytic uptake of apoptotic J774 cells by peritoneal macrophages, ROCK inhibitor (Example 4); format: cell-based; conditions: 10 μM, one hour pre-treatment, 45 minutes with apoptotic cells; vs untreated; FIG. 4
Experimental: As discussed in Example 6, statins can inhibit RhoA activation. RhoA activation inhibits phagocytic clearance of apoptotic cells and so inhibitors of RhoA or the downstream RhoA effector, Rho kinase (ROCK) can enhance or at least contribute to limit or decrease Rho-mediated inhibition of phagocytic clearance. […] In these experiments, peritoneal macrophages (phagocytes) were treated for one hour in the presence or absence of 10 μM Y-27632. Calcein-AM-labeled (green) apoptotic J774 cells (UV-irradiated) were then added to the phagocytes at a ratio of 1:1, in the absence or presence of Y-27632. After 45 minutes, non-internalized cells were removed by rinsing, and the percentage of phagocytes that had internalized labeled apoptotic macrophages was quantified by fluorescence microscopy. Results are depicted in FIG. 4 as the as the mean ±SEM; n=3 fields of cells, each containing approximately 150 cells.

[7] = test system: UV-irradiated apoptotic J774 cells; experiment: Efferocytosis of UV-irradiated apoptotic J774 cells by cytokine pre-treated primary efferocytes; format: cell-based; conditions: pre-treated about 24 hours, challenged 30 minutes; FIG. 17
Experimental: FIG. 17. Primary efferocytes were pre-treated with the indicated cytokine for about 24 hours and then challenged for 30 minutes with UV-irradiated apoptotic J774 cells and the percent efferocytosis was determined.
Thus, drugs that mimic this effect can promote the uptake of apoptotic macrophages in advanced atherosclerotic lesions (see in allergic, cellular and humoral responses to parasitic and extracellular pathogens (see Nat Rev Immunol. 2003 January;3(1):23-35).

O=C(Nc1cc(Cl)cc2c1[nH]c1cnccc12)c1cccnc1 [PS1145]
FC-induced apoptosis in IPs (in words) ([1]; 20 hours FC-loading, vs no inhibitor): very similar effect
apoptosis in IPs [1]: 32.0±3.4%
UV-induced apoptosis in non-IPs / compared to non-IPs [2]: no effect
UV-induced apoptosis in IPs ([2]; vs no-inhibitor control): only a small increase

O=c1cc(N2CCOCC2)oc2c(-c3ccccc3)cccc12 [LY294002]
apoptosis in IPs [1]: 32.0±5.7%

CCN(CC)CC.Nc1ncnc2c1ncn2C1OC2COP(O)(=S)OC2C1O (single isomer, unassigned) [PKA inhibitor, adenosine 3′,5′-cyclic monophosphorothioate, Rp-isomer, triethylammonium salt]
percentage of rhodamine-labeled phagocytes with green inclusion (uptake of FC-induced apoptotic macrophages) [3]: internalized more FC-induced apoptotic macrophages than untreated phagocytes

fucoidan
induction of apoptosis in the IPs [4]: did not induce apoptosis

CCN(CC)CCO[C@H]1CC[C@@]2(C)C(=CC[C@@H]3[C@@H]2CC[C@]2(C)C(=O)CC[C@@H]32)C1 [U18666A]
FC-AM-induced increase in cholesterol esterification (cholesteryl [14C]oleate formation) [5]: completely blocked

O=S(=O)(c1cccc2cnccc12)N1CCCNCC1 [fasudil]
percentage phagocytosis (phagocytes that had engulfed at least one UV-AM) [6]: increased

C[C@@H](N)[C@H]1CC[C@H](C(=O)Nc2ccncc2)CC1 [Y-27632, trans-4-[(1R)-1-aminoethyl]-N-pyridin-4-ylcyclohexanecarboxamide]
percentage of phagocytes ingesting apoptotic macrophages (apoptotic J774 cells): increase

B1: interleukin-4: cytokine that promotes alternative activation of macrophages (protein, UniProt P05112 25-153, looked up)
Interleukin-4: HKCDITLQEIIKTLNSLTEQKTLCTELTVTDIFAASKNTTEKETFCRAATVLRQFYSHHEKDTRCLGATAQQFHRHKQLIRFLKRLDRNLWGLAGLNSCPVKEANQSTLENFLERLKTIMREKYSKCSS
percent efferocytosis (ability of phagocytes to engulf apoptotic macrophages) [7]: promotes the ability of these phagocytes to engulf apoptotic macrophages
